In one experiment the target is T1, Cbl-b (aa36-427) (Homo sapiens, UniProt Q13191).
T1 construct: Cbl-b (aa36-427, in-house); made in house
Briefly: Co-expressed Cbl-b with BirA biochemical assay (CBLB/E2-Ub binding, HTRF). The following applies: 0.6 nM Cbl-b co-expressed with BirA, HTRF; read-out: co-express CBLB/E2-Ub-binding assay IC50. The text has this: (§1) The assay in the absence of a Cbl-b/Cbl inhibitor, where phosphorylation of Cbl-b/Cbl by the Src kinase allows UbcH5B-Ub to bind to Cbl-b/Cbl and brings the Bodipy-Fluorescein tagged ubiquitin in proximity to the streptavidin-terbium bound to the N-terminal biotinylated Avi-tagged Cbl-b/Cbl. […] The lack of a FRET signal indicates Cbl-b/Cbl is inhibited by the Cbl-b/Cbl inhibitor.
On the technique in general: Time-resolved FRET reads energy transfer from a long-lived donor to a nearby acceptor.

The next experiment addresses T2, Cbl (aa49-434) (Homo sapiens, UniProt P22681).
T2 construct: Cbl (aa49-434, in-house); made in house
T2 sequence (P22681 49-434): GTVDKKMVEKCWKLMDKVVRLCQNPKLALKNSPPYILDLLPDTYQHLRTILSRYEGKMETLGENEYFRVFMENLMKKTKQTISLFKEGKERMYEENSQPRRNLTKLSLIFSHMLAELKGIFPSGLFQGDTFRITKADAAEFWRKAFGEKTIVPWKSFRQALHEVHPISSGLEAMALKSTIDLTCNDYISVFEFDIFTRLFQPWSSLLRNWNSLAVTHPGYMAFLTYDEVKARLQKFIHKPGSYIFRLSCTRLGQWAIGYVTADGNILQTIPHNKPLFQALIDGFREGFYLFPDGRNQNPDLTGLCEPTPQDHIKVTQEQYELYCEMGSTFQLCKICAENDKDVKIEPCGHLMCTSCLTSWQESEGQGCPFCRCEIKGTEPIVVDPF
Briefly: Co-expressed Cbl with BirA biochemical assay (CBL/E2-Ub binding, HTRF). As to conditions: 0.6 nM Cbl co-expressed with BirA, read-out: co-express CBL/E2-Ub-binding assay IC50.
Text: as §1

The structures appear in SMILES notation. pIC50: −log10 of the molar value.

T1 sequence (Q13191 36-427): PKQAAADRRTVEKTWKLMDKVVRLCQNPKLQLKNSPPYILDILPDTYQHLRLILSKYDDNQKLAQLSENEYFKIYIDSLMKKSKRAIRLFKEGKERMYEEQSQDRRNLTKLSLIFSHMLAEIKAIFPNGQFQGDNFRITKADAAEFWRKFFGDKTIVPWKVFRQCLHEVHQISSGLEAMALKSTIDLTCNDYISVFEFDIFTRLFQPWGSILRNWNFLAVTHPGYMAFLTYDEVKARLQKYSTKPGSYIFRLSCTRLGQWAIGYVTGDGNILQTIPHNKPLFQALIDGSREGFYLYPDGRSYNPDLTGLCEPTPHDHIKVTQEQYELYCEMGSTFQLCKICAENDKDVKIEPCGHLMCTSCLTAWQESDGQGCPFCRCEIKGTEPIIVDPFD

On to `[2H]C([2H])([2H])n1cnnc1[C@]1(c2cccc(NC(=O)c3cc(CNC4(C)CC4)cn4ccnc34)c2)C[C@H](C)C1` [Compound A95, N-(3-((1s, 3s)-3-methyl-1-(4-(methyl-d3)-4H-1,2,4-triazol-3-yl)cyclobutyl)phenyl)-6-(((1-methylcyclopropyl)amino)methyl)imidazo[1,2-a]pyridine-8-carboxamide], for which the pIC50 on Cbl-b (aa36-427) is 9.15; on Cbl (aa49-434), 8.47.

On to `Cn1cnnc1C[C@]1(c2cccc(NC(=O)c3cc(CNCC4(C)CCCC4)cn4c(Cl)cnc34)c2)C[C@H](C#N)C1` [Compound A29, 3-chloro-N-(3-((1r, 3r)-3-cyano-1-((4-methyl-4H-1,2,4-triazol-3-yl)methyl)cyclobutyl)phenyl)-6-((((1-methylcyclopentyl)methyl)amino)methyl)imidazo[1,2-a]pyridine-8-carboxamide], for which the pIC50 at Cbl-b (aa36-427) was 8.89; at Cbl (aa49-434) it was 8.64.

On to `CC(C)CNCc1cc(C(=O)Nc2cccc([C@]3(c4nncn4C)C[C@@H](CC#N)C3)c2)nc2c1NCC2(C)C` [Compound C32, 3,3-dimethyl-7-{[(2-methylpropyl)amino]methyl}-N-{3-[(1s, 3s)-3-(cyanomethyl)-1-(4-methyl-1,2,4-triazol-3-yl)cyclobutyl]phenyl}-1H,2H-pyrrolo[3,2-b]pyridine-5-carboxamide], for which the results for the pIC50 at Cbl-b (aa36-427) and on Cbl (aa49-434) were 8.73 and 8.11, respectively.

For `Cn1cnnc1[C@]1(c2cccc(NC(=O)c3cc(CNCC4CCC(F)(F)CC4)c4[nH]ccc4n3)c2)C[C@H](CC#N)C1` [Compound B22, N-(3-((1s, 3s)-3-(cyanomethyl)-1-(4-methyl-4H-1,2,4-triazol-3-yl)cyclobutyl)phenyl)-7-((((4,4-difluorocyclohexyl)methyl)amino)methyl)-1H-pyrrolo[3,2-b]pyridine-5-carboxamide], the pIC50 was 8.40 at Cbl-b (aa36-427) and 7.71 on Cbl (aa49-434).

Consider `C[C@@H]1CN(Cc2cc(C(=O)Nc3cccc([C@]4(c5nncn5C)C[C@@H](C)C4)c3)nc3c2CCC3(C)C)CC[C@@H]1F` [Compound C55, 4-(((3R,4S)-4-fluoro-3-methylpiperidin-1-yl)methyl)-7,7-dimethyl-N-(3-((1s,3S)-3-methyl-1-(4-methyl-4H-1,2,4-triazol-3-yl)cyclobutyl)phenyl)-6,7-dihydro-5H-cyclopenta[b]pyridine-2-carboxamide], for which the pIC50 is 8.96 at Cbl-b (aa36-427) and 8.72 at Cbl (aa49-434).

With `Cn1ccc2c(CNCC3CCC3)cc(C(=O)Nc3cccc([C@]4(c5nncn5C)C[C@@H](C)C4)c3)nc21` [Compound B45, 4-(((cyclobutylmethyl)amino)methyl)-1-methyl-N-(3-((1s, 3s)-3-methyl-1-(4-methyl-4H-1,2,4-triazol-3-yl)cyclobutyl)phenyl)-1H-pyrrolo[2,3-b]pyridine-6-carboxamide], the figures for the pIC50 at Cbl-b (aa36-427) and at Cbl (aa49-434) were 8.77 and 7.78, respectively.

Take `Cn1cnnc1[C@]1(c2cncc(NC(=O)c3cc(CNC4(C)CCC4)cn4ccnc34)c2)C[C@H](C)C1` [Compound A81, N-(5-((1s, 3s)-3-methyl-1-(4-methyl-4H-1,2,4-triazol-3-yl)cyclobutyl)pyridin-3-yl)-6-(((1-methylcyclobutyl)amino)methyl)imidazo[1,2-a]pyridine-8-carboxamide]: the pIC50 is 8.74 on Cbl-b (aa36-427) and 8.09 at Cbl (aa49-434).

Take `C[C@H]1CCCN(Cc2cc(C(=O)Nc3cccc([C@]4(c5nncn5C)C[C@@H](CC#N)C4)c3)nn3cccc23)C1` [Compound B14, 4-{[(3S)-3-methylpiperidin-1-yl]methyl}-N-{3-[(1s, 3s)-3-(cyanomethyl)-1-(4-methyl-1,2,4-triazol-3-yl)cyclobutyl]phenyl}pyrrolo[1,2-b]pyridazine-2-carboxamide]: the figures for the pIC50 at Cbl-b (aa36-427) and on Cbl (aa49-434) were 7.87 and 7.05, respectively.

(Values after patent US20250163047A1, “HETEROCYCLIC COMPOUNDS, COMPOSITIONS THEREOF, AND METHODS OF TREATMENT THEREWITH” (BeiGene, Ltd., priority 2022, published 2025).)
